# Measured values from patent publication US7572606B1 (Nereus Pharmaceuticals, Inc., priority 2005, dated 2009).
# Several values for one entry are separate records, joined by “and”; a condition that tells them apart may be missing. Identical values can stand only once. Like-named read-outs stand apart in the source and are kept apart here.
# Legend:
# [1] = system: HL-60; experiment: Cell growth inhibition, resazurin, 48 h; conditions: Homo sapiens, HL-60, 48 h, HL-60, 48 h drug exposure
# Protocol: (§1) The DNA binding agent Mitoxantrone was included as a control, as HL-60/MX2 cells are reported to be resistant to this chemotherapeutic agent (Harker W. G. et al. 1989).
# (§2) Concentrations ranging from 6.32 μM to 2 nM were tested for II-2 and II-4.
# [2] = system: NF-κB-mediated luciferase activity in HEK293 NF-κB/Luc cells; experiment: NF-κB-mediated luciferase reporter gene assay; assay type: cell-based, human; conditions: for luciferase activity upon TNF-α stimulation: pretreatment of NF-κB/Luc 293 cells; for EC50: 6 h TNF-α stimulation
# Protocol: The HEK293 NF-κB/luciferase reporter cell line is a derivative of the human embryonic kidney cell line (ATCC; CRL-1573) and carries a luciferase reporter gene under the regulation of 5×NF-κB binding sites. […] When performing the luciferase assay, the DMEM basal medium was replaced with phenol-red free DMEM basal medium and the G418 was omitted.
# For NF-κB-mediated luciferase assays, HEK293 NF-κB/luciferase cells were seeded at 1.5×10^4 cells/well in 90 μl phenol-red free DMEM complete medium into Corning 3917 white opaque-bottom tissue culture plates. For Formulae II-2, II-4, II-5A and II-18, a 400 μM starting dilution was made in 100% DMSO and this dilution was used to generate an 8-point half log dilution series. […] For formula II-20, a 2.5 mM or 8 mM starting dilution was made in 100% DMSO and the final test concentrations ranged from 6.3 μM to 2.0 nM or 20 μM to 6.3 nM respectively. The plates were returned to the incubator for 1 hour. After 1 hr pretreatment, 10 μl of a 50 ng/ml TNF-α solution, prepared in the phenol-red free DMEM medium was added, and the plates were incubated for an additional 6 hours.
# At the end of the TNF-α stimulation, 100 μl of Steady Lite HTS luciferase reagent (Packard Bioscience) was added to each well and the plates were left undisturbed for 10 min at room temperature before measuring the luciferase activity. The relative luciferase units (RLU) were measured by using a Fusion microplate fluorometer (Packard Bioscience).
# NF-κB inducible luciferase activity was measured at 6 hours.
# [3] = system: MES-SA/Dx5; experiment: Cell growth inhibition, resazurin, 48 h; conditions: for EC50: MES-SA/Dx5, 48 h drug exposure
# Protocol: as §2
# [4] = system: U266; experiment: Cell growth inhibition, resazurin, 48 h; assay type: cell-based, human; conditions: U266, 48 h drug exposure
# [5] = target: caspase-like (PGPH) activity of rabbit muscle 20S proteasome (Oryctolagus cuniculus, UniProt A0A5F9DQW2); experiment: In vitro inhibition of 20S proteasome, Z-LLE-AMC
# Chain of caspase-like (PGPH) activity of rabbit muscle 20S proteasome (A0A5F9DQW2 1-212): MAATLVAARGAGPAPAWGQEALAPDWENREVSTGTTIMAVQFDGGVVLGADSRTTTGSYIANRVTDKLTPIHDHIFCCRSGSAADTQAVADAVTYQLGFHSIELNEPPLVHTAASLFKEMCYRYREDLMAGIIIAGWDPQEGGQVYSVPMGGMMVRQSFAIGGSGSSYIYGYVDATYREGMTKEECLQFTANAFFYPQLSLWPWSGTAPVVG
# [6] = target: T1, trypsin-like activity of rabbit muscle 20S proteasome (Oryctolagus cuniculus, UniProt G1SWK8); experiment: In vitro inhibition of 20S proteasome, Boc-LRR-AMC; assay type: biochemical
# T1 construct: EC50 Trypsin-like; other: purified rabbit 20S proteasome, Boc-LRR-AMC; other: under the conditions tested
# T1 sequence (G1SWK8 1-271): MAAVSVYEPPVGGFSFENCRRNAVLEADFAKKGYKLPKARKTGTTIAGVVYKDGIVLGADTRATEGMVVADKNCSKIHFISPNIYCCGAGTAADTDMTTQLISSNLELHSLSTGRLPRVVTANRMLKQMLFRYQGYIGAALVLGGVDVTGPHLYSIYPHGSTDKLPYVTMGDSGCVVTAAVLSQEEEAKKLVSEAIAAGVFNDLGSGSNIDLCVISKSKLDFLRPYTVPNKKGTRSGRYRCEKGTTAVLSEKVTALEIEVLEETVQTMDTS
# [7] = system: HT-29; experiment: Cell growth inhibition, resazurin, 48 h; assay type: cell-based, human; conditions: HT-29, 48 h drug exposure
# Protocol: (§3) RPMI 8226 (CCL-155), HT-29 (HTB-38), and B16-F10 (CRL-6475) cells were purchased from ATCC. RPMI 8226 cells were maintained in RPMI 1640 media supplemented with 10% (v/v) FBS, 2 mM L-glutamine, 1 mM sodium pyruvate and Penicillin/Streptomycin at 100 IU/ml and 100 μg/ml, respectively. HT-29 cells were maintained in McCoys 5A supplemented with 10% (v/v) FBS, 2 mM L-glutamine, 1 mM sodium pyruvate, 1% (v/v) non-essential amino acids, 10 mM HEPES and Penicillin/Streptomycin at 100 IU/ml and 100 μg/ml, respectively. B16-F10 cells were maintained in DMEM supplemented with 10% (v/v) FBS, 2 mM L-glutamine, 10 mM HEPES and Penicillin/Streptomycin at 100 IU/ml and 100 μg/ml, respectively.
# (§4) RPMI 8226 cells were seeded at 2×10^4 cells/well in 90 μl RPMI media containing 10% (v/v) FBS or 1% (v/v) FBS into 96 well black-walled, clear-bottom tissue culture plates. […] Formulae II-16, II-17 and Formula II-18 were serially diluted in media containing 1% or 10% FBS and added in triplicate to the test wells. […] The final concentration of Formula II-18 ranged from 2 μM to 630 pM.
# [8] = system: RPMI 8226; experiment: Cell growth inhibition, resazurin, 48 h; conditions: RPMI 8226, 48 h drug exposure
# Protocol: as §3, §4
# [9] = system: B16-F10; experiment: Cell growth inhibition, resazurin, 48 h; assay type: cell-based, mouse; conditions: B16-F10, 48 h drug exposure
# Protocol: as §3, §4
# [10] = system: HL-60/MX2; experiment: Cell growth inhibition, resazurin, 48 h; conditions: HL-60/MX2, 48 h drug exposure
# Protocol: as §1, §2
# [11] = system: MDA-MB-231; experiment: Cell growth inhibition, resazurin, 48 h; assay type: cell-based, human; conditions: MDA-MB-231, 48 h drug exposure
# [12] = system: OVCAR-3; experiment: Cell growth inhibition, resazurin, 48 h; assay type: cell-based, human; conditions: OVCAR-3, 48 h drug exposure
# [13] = system: PC-3; experiment: Cell growth inhibition, resazurin, 48 h; conditions: Homo sapiens, PC-3, 48 h, PC-3, 48 h drug exposure
# [14] = system: NCI-H292; experiment: Cell growth inhibition, resazurin, 48 h; assay type: cell-based, human; conditions: NCI-H292, 48 h drug exposure
# [15] = target: T2, chymotrypsin-like activity of rabbit muscle 20S proteasome (Oryctolagus cuniculus, UniProt G1T4Q9); experiment: In vitro inhibition of 20S proteasome, suc-LLVY-AMC
# T2 sequence (G1T4Q9 1-263): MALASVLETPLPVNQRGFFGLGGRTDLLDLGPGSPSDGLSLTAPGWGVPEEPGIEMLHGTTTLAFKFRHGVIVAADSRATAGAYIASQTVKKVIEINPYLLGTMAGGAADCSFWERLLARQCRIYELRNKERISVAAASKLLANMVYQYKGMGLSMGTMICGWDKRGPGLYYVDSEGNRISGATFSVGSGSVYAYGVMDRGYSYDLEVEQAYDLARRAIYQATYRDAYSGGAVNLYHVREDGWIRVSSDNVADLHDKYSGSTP
# [16] = read-out: EC50 Caspase-like, purified rabbit 20S proteasome, Z-LLE-AMC
# [17] = Mus musculus, B16-F10, 48 h, read-out: EC50
# [18] = read-out: EC50 Chymotrypsin-like, purified rabbit 20S proteasome, suc-LLVY-AMC
# [19] = Homo sapiens, HEK293, 1 h pretreatment, read-out: EC50
# [20] = Homo sapiens, U-266, 48 h, read-out: EC50
compound,measurement,setting,value
C[C@@]12OC(=O)[C@]1([C@@H](O)C1CCCCC1)NC(=O)[C@@H]2CCCl [Formula II-2],EC50,[1],237 nM
same,luciferase activity upon TNF-α stimulation,[2],dose-dependent decrease of luciferase activity
same,EC50,"[3]; Homo sapiens, MES-SA/Dx5, 48 h",220 nM
same,EC50,[3],138 nM
same,EC50,[4]; read-out: EC50,39 nM
same,EC50,[5]; [16],1300 nM and 1700 nM
same,inhibition of the trypsin-like activity of the 20S proteasome,[6]; under the conditions tested,able to inhibit the trypsin-like activity
same,EC50,"[7]; Homo sapiens, read-out: EC50",129 ± 21 nM
same,EC50,"[8]; Homo sapiens, RPMI-8226, 48 h",49 nM
same,EC50,[9]; [17],194 nM
"O=C1c2c(O)ccc(O)c2C(=O)c2c(NCCNCCO)ccc(NCCNCCO)c21 [Mitoxantrone, reference compound]",EC50,[10],827 nM and 1340 nM and 1170 nM
same,EC50,"[10]; Homo sapiens, HL60/MX2, 48 h",1410 nM
"CC(=O)O[C@H]1C(=O)[C@@]2(C)[C@H]([C@H](OC(=O)c3ccccc3)[C@]3(O)C[C@H](OC(=O)[C@H](O)[C@@H](NC(=O)c4ccccc4)c4ccccc4)C(C)=C1C3(C)C)[C@]1(OC(C)=O)CO[C@@H]1C[C@@H]2O [Paclitaxel, reference compound]",% cytotoxicity,"[3]; human, 48 h",78 ± 1%
C[C@@]12OC(=O)[C@]1([C@@H](O)[C@H]1CCC[C@@H]3O[C@H]13)NC(=O)[C@@H]2CCCl [Formula II-5B],EC50,[11],957 nM
same,EC50,[2]; 1 h pretreatment,279 nM
same,luciferase activity upon TNF-α stimulation,[2],dose-dependent decrease of luciferase activity
same,EC50,[5]; [16],3800 nM and 2900 nM
same,EC50,"[12]; Homo sapiens, OVCAR-3, 48 h",1320 nM
same,inhibition of the trypsin-like activity of the 20S proteasome,[6]; under the conditions tested,able to inhibit the trypsin-like activity
same,EC50,[7],1210 nM
same,EC50,[13],1790 nM
same,EC50,"[14]; Homo sapiens, NCI-H292, 48 h",992 nM
same,EC50,[14],1250 nM
same,EC50,[15],13 to 88 nM
same,EC50,[15]; [18],85 nM
same,EC50,[9],1140 nM
same,EC50,"[9]; Mus musculus, B16-F10, 48 h",1270 nM
CC[C@@]12OC(=O)[C@]1([C@@H](O)[C@@H]1C=CCCC1)NC(=O)[C@@H]2CCCl [Formula II-24C],luciferase activity upon TNF-α stimulation,[2],dose-dependent decrease of luciferase activity
same,EC50,[5]; [16],> 20000 nM
same,inhibition of the trypsin-like activity of the 20S proteasome,[6]; under the conditions tested,able to inhibit the trypsin-like activity
same,EC50,[15]; [18],2200 nM
C[C@@]12OC(=O)[C@]1([C@@H](O)C1CCCCC1)NC(=O)[C@@H]2CCBr [Formula II-4],EC50,"[10]; Homo sapiens, HL60/MX2, 48 h",97 nM
same,EC50,[1],143 nM
same,EC50,"[2]; 1 h pretreatment, read-out: EC50",88 nM
same,EC50,[2]; [19],67 nM
same,luciferase activity upon TNF-α stimulation,[2],dose-dependent decrease of luciferase activity
same,EC50,"[3]; Homo sapiens, MES-SA/Dx5, 48 h",178 nM
same,EC50,[3],93 nM
same,EC50,[4]; [20],34 nM
same,EC50,[4]; read-out: EC50,39 nM
same,EC50,[5]; read-out: EC50 Caspase-like (PGPH),850 nM and 637 nM
same,EC50,"[12]; Homo sapiens, read-out: EC50",> 6320 nM
same,inhibition of the trypsin-like activity of the 20S proteasome,[6],able to inhibit the trypsin-like activity
same,EC50,"[8]; Homo sapiens, RPMI-8226, 48 h",57 nM
same,EC50,[8],51 nM
same,EC50,[9]; [17],163 nM
CC[C@H]1C(=O)N[C@@]2([C@@H](O)C3CCCCC3)C(=O)O[C@@]12C [Formula II-3],EC50,"[3]; Homo sapiens, MES-SA/Dx5, 48 h",> 20000 nM
same,EC50,[4]; [20],> 20000 nM
same,EC50,[5]; read-out: EC50 Caspase-like,> 20000 nM
same,inhibition of the trypsin-like activity of the 20S proteasome,[6],able to inhibit the trypsin-like activity
same,EC50,"[7]; Homo sapiens, read-out: EC50",> 20000 nM
same,EC50,"[8]; Homo sapiens, RPMI-8226, 48 h",> 20000 nM
C[C@@]12OC(=O)[C@]1([C@@H](O)[C@H]1CCC[C@H]3O[C@@H]13)NC(=O)[C@@H]2CCCl [Formula II-5A],EC50,"[11]; Homo sapiens, MDA-MB-231, 48 h",61 ± 4.6 nM
same,EC50,[2]; 1 h pretreatment,33 nM
same,luciferase activity upon TNF-α stimulation,[2],dose-dependent decrease of luciferase activity
same,EC50,"[5]; read-out: EC50 Caspase-like (PGPH), purified rabbit 20S proteasome, Z-LLE-AMC",535 nM and 438 nM
same,EC50,"[12]; Homo sapiens, OVCAR-3, 48 h",80 nM
same,EC50,[12],64 nM
same,EC50,"[6]; purified rabbit 20S proteasome, Boc-LRR-AMC",90 nM
same,inhibition of the trypsin-like activity of the 20S proteasome,[6]; under the conditions tested,able to inhibit the trypsin-like activity
same,EC50,"[7]; Homo sapiens, HT-29, 48 h",67 ± 17 nM
same,EC50,[13],109 ± 15 nM
same,EC50,"[14]; Homo sapiens, NCI-H292, 48 h",102 ± 19 nM
same,EC50,[15],2 to 11 nM
same,EC50,[15]; [18],7 nM
same,EC50,"[9]; Mus musculus, B16-F10, 48 h",78 ± 11 nM
C[C@@]12OC(=O)[C@]1([C@H](O)[C@@H]1C=CCCC1)NC(=O)[C@@H]2CCCl [Formula II-25],EC50,[2]; [19],> 20000 nM
same,EC50,"[4]; Homo sapiens, U-266, 48 h",> 20000 nM
same,EC50,"[8]; Homo sapiens, RPMI-8226, 48 h",> 20000 nM
C[C@@]12OC(=O)[C@]1(C(=O)C1=CC(O)CCC1)NC(=O)[C@]2(C)CCCl (stereo partly drawn) [Formula II-31],EC50,[15],> 20000 nM
C[C@@]12OC(=O)[C@]1([C@@H](O)[C@H]1CCC[C@H](Cl)[C@H]1O)NC(=O)[C@@H]2CCCl [Formula IV-3C],EC50,[2]; [19],> 20000 nM
same,EC50,[4]; [20],7760 nM
same,EC50,[4]; read-out: EC50,8290 nM
same,EC50,[5]; [16],> 20000 nM
same,EC50,"[8]; Homo sapiens, RPMI-8226, 48 h",> 20000 nM
